For orientation: IC50 means the point on the concentration scale where inhibition reaches its midpoint. The low end stands for inhibition by little substance, the high end for a need for much substance. Broadly, the Ki is the dissociation constant of the complex between target and ligand, obtained from inhibition or displacement.

One assay has as its system L1210. The assay is described as follows: Inhibitory activity for the growth inhibition of L1210 cell line. The class given is functional, cell-based. Conditions: Mus musculus.
Assay [1] in a line: Relative influx was determined by taking the ratio vs MTX in L1210 cell line. The class given is functional.
The target in another assay is T1, Dihydrofolate reductase (Mus musculus, UniProt P00375).
T1 sequence (P00375 whole entry): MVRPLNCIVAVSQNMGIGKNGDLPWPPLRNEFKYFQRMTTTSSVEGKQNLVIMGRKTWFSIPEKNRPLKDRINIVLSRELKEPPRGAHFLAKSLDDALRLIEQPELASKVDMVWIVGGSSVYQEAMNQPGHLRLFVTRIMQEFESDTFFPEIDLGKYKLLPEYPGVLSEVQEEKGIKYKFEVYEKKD
Description: Inhibitory activity of Dihydrofolate reductase derived from L1210 cell line. The class given is cell-based.

Assay [2] can be described thus: Inhibitory activity for Lactobacillus casei Glycinamide ribotide formyltransferase. Further details: species or system Lacticaseibacillus casei.
Assay [3] in a line: Inhibitory activity for L1210 Glycinamide ribotide formyltransferase. The arrangement: species or system Mus musculus.

For `CC(Cc1cnc2nc(N)nc(N)c2c1)c1ccc(C(=O)NC(CCC(=O)O)C(=O)O)cc1` (stereo unspecified), in the assay on L1210, the IC50 was found to be 23.9 nM. In assay [1], the Relative influx was 1.43. Affinity at Dihydrofolate reductase was put at a Ki of 0.007 nM.

In the assay on L1210, `CCC(Cc1cnc2nc(N)nc(N)c2c1)c1ccc(C(=O)NC(CCC(=O)O)C(=O)O)cc1` (stereo unspecified) registered an IC50 of 12.1 nM. The Relative influx in assay [1] is on record as 1.32. The same molecule had a Ki on Dihydrofolate reductase of 0.013 nM.

Regarding `CCC(CC1CNc2nc(N)nc(O)c2C1)c1ccc(C(=O)NC(CCC(=O)O)C(=O)O)cc1` (stereo unspecified), the IC50 in the assay with L1210 amounted to 34.6 nM; in assay [2], 80 nM; in assay [3], 660 nM. Further, the Relative influx in assay [1] was 1.36. In addition, the inhibition constant (Ki) on Dihydrofolate reductase is more than 1000 nM.

`CC(CC1CNc2nc(N)nc(O)c2C1)c1ccc(C(=O)NC(CCC(=O)O)C(=O)O)cc1` (stereo unspecified): the IC50 with L1210 came out at 50.3 nM; in assay [2], 17 nM; in assay [3], 1500 nM. Also, in assay [1], the Relative influx is given as 1.72. Also, at Dihydrofolate reductase, the Ki was more than 1000 nM.

Turning to `Nc1nc(O)c2c(n1)CCC(CNc1ccc(C(=O)NC(CCC(=O)O)C(=O)O)cc1)C2` (stereo unspecified), the IC50 in the assay with L1210 stood at 57.2 nM; in assay [2], 10 nM; in assay [3] it was 500 nM. For the same molecule, the Relative influx in assay [1] is on record as 1.54. At Dihydrofolate reductase, the Ki is more than 1000 nM.

Source of the values: ChEMBL document CHEMBL1124825 (J Med Chem, 1990).
